Common to all, as to format: cell-based
Assay [1] concerns SW48. Put plainly: XTT cell viability, SW48 colon cancer cells. To be noted: Homo sapiens; SW48 colon cancer cell line; XTT test; compound in 30 mM HEPES pH=7, 0.25 to 10 μM; read-out: EC50 values on colon and liver cancer cells, SW48. As to the method:
(§1) The effect of the compounds Z522-0249, Z522-0251, Erbitux and E-626-0342 on the growth profile of cancer cells which express Fer was tested. The cells that were tested were: the colon cancer cell lines HT29, HCT 116, RKO, SW620, and SW48 and the liver cancer cell line Hep3B. The effect of each of the three compounds (Z522-0249, Z522-0251 and E-626-0342) on FS11 cells, a non malingnant fibroblastic cell line, was also studied.
(§2) Cells were seeded in 96 well microplates and were left to grow untreated overnight. Z522-0249 and Z522-0251 were dissolved in 30 mM HEPES pH=7 and were then added to each well in a dose dependent manner from 0.25 to 10 μM. E626-0342 was dissolved in DMSO and was then added to each well in a dose dependent manner from 0.1 to 5 μM. The concentration of DMSO in each well was 0.4% v/v. Untreated cells and cells subjected to 30 mM HEPEs pH=7 or 0.4% DMSO alone, served as controls. The number of viable cells in each well was determined 48, 72, and 96 hours after compound addition, using the XTT test (Berridge, M. V. et al, 2005).
(Tetrazolium assays rely on reduction of a dye to a coloured formazan, in cell work by metabolically active cells.)

Assay [2] has as its system RKO. Put plainly: XTT cell viability, RKO colon cancer cells. To be noted: Homo sapiens; RKO colon cancer cell line; XTT test; compound in 30 mM HEPES pH=7, 0.25 to 10 μM; read-out: EC50 values on colon and liver cancer cells, RKO. As to the method: as §1, §2
In assay [3] the test system is HT29. Put plainly: XTT cell viability, HT29 colon cancer cells. To be noted: Homo sapiens, HT-29; HT29 colon cancer cell line; XTT test; compound in 30 mM HEPES pH=7, 0.25 to 10 μM; read-out: EC50 values on colon and liver cancer cells, HT29. As to the method: as §1, §2
In assay [4] the test system is FS (normal fibroblasts). The assay can be described thus: XTT cell viability, FS (normal fibroblasts). To be noted: Fibroblast; FS normal (non malignant) fibroblasts; XTT test; compound in 30 mM HEPES pH=7, 0.25 to 10 μM. How it is done:
as §1, §2

The subject of assay [5] is HCT116. Put plainly: XTT cell viability, HCT116 colon cancer cells. To be noted: Homo sapiens, HCT-116; HCT116 colon cancer cell line; XTT test; compound in 30 mM HEPES pH=7, 0.25 to 10 μM; read-out: EC50 values on colon and liver cancer cells, HCT116. As to the method: as §1, §2
In assay [6] the test system is Hep3B. Put plainly: XTT cell viability, Hep3B liver cancer cells. To be noted: Homo sapiens; Hep3B liver cancer cell line; XTT test; compound in 30 mM HEPES pH=7, 0.25 to 10 μM; read-out: EC50 values on colon and liver cancer cells, Hep3B. As to the method: as §1, §2
Assay [7] has as its system SW620. The assay can be described thus: XTT cell viability, SW620 colon cancer cells. To be noted: Homo sapiens, SW-620; SW620 colon cancer cell line; XTT test; compound in 30 mM HEPES pH=7, 0.25 to 10 μM; read-out: EC50 values on colon and liver cancer cells, SW620. As to the method: as §1, §2

In general, EC50 refers to the concentration that produces a half-maximal response. In the case of `CC(C)c1ccc(-c2cn3nc(N4CCN(CC5CCN(C)CC5)CC4)sc3n2)cc1` [Z522-0249, 6-(4-isopropylphenyl)-2-{4-[(1-methylpiperidin-4-yl)methyl]piperazin-1-yl}imidazo[2,1-b][1,3,4]thiadiazole], the half-maximal effective concentration (EC50) was 500 to 1000 nM in assay [1]; 1000 to 2000 nM in assay [2]; 2000 nM in assay [3]; 10000 nM in assay [4]; 3000 nM in assay [5]; 1000 to 2000 nM in assay [6]. In assay [7], the EC50 fell in the range of 500 to 1000 nM.
`CC(C)c1ccc(-c2cn3nc(N4CCC(CN5CCN(C)CC5)CC4)sc3n2)cc1` [Z522-0251, 6-(4-isopropyl-phenyl)-2-{4-[(4-methyl-piperazin-1-yl)methyl]piperidin-1-yl}imidazo[2,1-b][1,3,4]thiadiazole]: the concentration giving a half-maximal response (EC50) was in the range of 500 to 1000 nM in assay [1]; 2000 to 3000 nM in assay [2]; 2000 to 3000 nM in assay [3]; 3000 to 4000 nM in assay [5]; 1000 to 2000 nM in assay [6]; 500 to 1000 nM in assay [7].

(Values after patent US8653082B2, “6-phenyl-2-[((piperidin-4-ylmethyl)-piperazin-1YL) or piperazin 1-ylmethyl)-piperidin-1-yl)]-imidazo[2,1-B][1,3,4]thiadiazole derivatives and their use” (Urifer Ltd., priority 2009, dated 2014).)
